Experimental data: paper PMC5989765, “The safety, tolerability, and pharmacokinetic profile of GSK2838232, a novel 2nd generation HIV maturation inhibitor, as assessed in healthy subjects” (Pharmacology Research & Perspectives, 2018)
Values after ≈ are worked out from the molar mass of the structure shown. Where two headings read alike, the source gives them in different places.

Experiments:
HIV‐1 = system: HIV‐1; set-up: method as in earlier work; settings: cited from earlier work
[1] = Study HMI116787: single ascending dose, food effect and RTV boosting, SDD PiB, healthy subjects; type: in vivo, human; settings: for Cmax / Tmax / concentration at 24 h / AUC / half-life: human, plasma, oral; for Cmax / Tmax / concentration at 24 h / AUC / half-life / CL/F: fasted; for Cmax / AUC / half-life / CL/F: geometric mean (95% CI); for Tmax / concentration at 24 h: median (range); for concentration at 24 h: read-out: C24; for AUC: read-out: AUC(0‐∞); for half-life: read-out: t½ (converted)
Procedure: This study was a first‐in‐human, double‐blind, randomized, placebo‐controlled, single dose escalation study of GSK2838232 in healthy subjects conducted in two sequential cohorts with four dosing visits in each cohort. At each visit in each cohort, 6 out of the 8 subjects were randomized to receive the active dose, and 2 out of the 8 subjects were randomized to placebo. Cohort 1 tested escalating doses of 5, 10, and 20 mg GSK2838232 as a Spray Dried Dispersion (SDD) delivered as a powder‐in‐bottle (PiB) suspension; Cohort 2 tested the same formulation at doses of 50 and 100 mg, the effect of a high‐fat breakfast on a 50 mg dose, and the impact of steady‐state dosing of 100 mg once‐daily (QD) RTV on the PK of a single 10 mg dose of GSK2838232 (administered on Day 10 of the 12 days of RTV dosing). All doses were administered in a fasted state, except in the food effect portion of the study.
(§1) Blood samples were taken via an indwelling cannula or by direct venipuncture, collected into a di‐potassium ethylenediaminetetraacetic acid (K2 EDTA) tube, and placed on wet ice. Samples were centrifuged at approximately 1500g for 10 minutes at approximately 4°C. Exactly 500 μL of the resulting plasma was transferred into labeled 1.4 mL Matrix TrakMate Tubes containing exactly 500 μL of 50 mmol/L citrate buffer, pH 4.0, and mixed well. When 500 μL of plasma was not able to be transferred, the ratio of plasma to citrate buffer was kept at 1:1. Buffered plasma samples were kept on ice and frozen at −70°C within 1 hour of collection. Plasma samples were analyzed for GSK2838232 using a validated analytical method based on protein precipitation, followed by high performance liquid chromatography with tandem mass spectrometry (HPLC/MS/MS) analysis.
(§2) Extracts were analyzed using HPLC (Shimadzu, Nexera, 30 series) and tandem mass spectrometry detection (HPLC‐MS/MS). The mass spectrometer used was an API‐5500 using IonSpray interface (500 V) in positive mode monitoring. The mass transitions were 809.5 to 255.1 and 816.5 to 262.1 for GSK2838232 and [2H7] GSK2838232 (the isotopically labeled internal standard), respectively. The chromatographic conditions utilized a Waters Acquity UPLC BEH C18 column (50 × 2.1 mm, 1.7 μm) with mobile phases consisting of 1 mmol/L ammonium formate:formic acid (100:0.005) (mobile phase A) and acetonitrile:formic acid (100:0.1) (mobile phase B) at a flow rate of 0.6 mL/min, with pump B at 63% held for 2 minutes. The assay was validated to have precision (%RSD) of 0.7%‐6.5% (within‐run) and 1.0%‐5.9% RSD (between‐run) and with accuracy (%bias) of 0.0%‐1.6%. […] The lower limit of quantification (LLQ) was 0.5 ng/mL, using a 50 μL aliquot of K2EDTA acidified plasma. The higher limit of quantification (HLQ) was 500 ng/mL.
(§3) The PK parameters were calculated by standard noncompartmental analysis based on actual sampling times using WinNonlin Version 6.3 or higher. Estimation of AUC used the linear up/log down trapezoidal rule.

[2] = Study 200207: repeat dose 20-50 mg QD for 8 days, SDD, healthy subjects; type: in vivo, human
Procedure: This study was conducted in parallel with Study 200912 and was planned as a two‐part, double‐blind, placebo‐controlled, repeat dose escalation study of GSK2838232 with and without RTV for 8‐11 days. Subjects were randomized 3:1 to receive GSK2838232 or placebo. Part A was designed to evaluate GSK2838232 given alone for 8 days (20 mg and 50 mg GSK2838232 once‐daily (QD) for 8 days, respectively) and Part B was designed to evaluate GSK2838232 when co‐administered with 100 mg RTV QD for 11 days. Because of the occurrence of an SAE that was eventually determined to be unlikely to be related to GSK2838232 (see Safety discussion), the study was terminated early after one cohort in Part B (10 mg GSK2838232 + 100 mg RTV QD) had completed only 5 days of the planned 11‐day regimen.
as §1, §2, §3

[3] = 50 mg Fed (high, 60% fat meal) versus 50 mg fasted, SDD PiB formulation, Study HMI116787
[4] = RTV for 10 days prior to 10 mg SDD, Study 116787
[5] = single 5 mg SDD PiB, without ritonavir, Study HMI116787
[6] = single 10 mg SDD PiB, with ritonavir 100 mg QD (Day 10 of 12), Study HMI116787
[7] = single 10 mg SDD PiB, without ritonavir, Study HMI116787
[8] = single 20 mg SDD PiB, without ritonavir, Study HMI116787
[9] = single 50 mg SDD PiB, without ritonavir, Study HMI116787
[10] = single 100 mg SDD PiB, without ritonavir, Study HMI116787
[11] = repeated daily dosing with 50 mg, unboosted

In the case of `CC(C)C1=C2[C@H]3CC[C@@H]4[C@@]5(C)CC[C@H](OC(=O)CC(C)(C)C(=O)O)C(C)(C)[C@@H]5CC[C@@]4(C)[C@]3(C)CC[C@@]2([C@@H](O)CN(CCN(C)C)Cc2ccc(Cl)cc2)CC1=O` [GSK2838232], the “shift in IC90 with human serum albumin added” value (HIV‐1; assays to which human serum albumin was added) is given as “no significant shift”, the “IC90 in cell‐based assays (termed PA‐IC90, protein‐adjusted 90% inhibitory concentration)” value (HIV‐1; calculated) is given as 5 ng/mL (≈ 6.18 nM) and the IC90 (HIV‐1; calculated, read-out: IC90 in cell‐based assays) is given as 6.4 nM. For the same molecule, the “activity to viruses with key resistance mutations” value (HIV‐1; panel of viruses) was “retains activity”, the “Geometric least square mean ratio [90% CI], AUC(0‐∞)” value [1, 3] was 1.61 (1.266, 2.053) and the “Geometric least square mean ratio [90% CI], C max” value [1, 3] was 1.60 (0.995, 2.566). The “change in t½ with RTV” value [1, 4] was “approximately doubled”, the “increase in 24‐h concentration (C24) with RTV” value [1, 4] was roughly 6.4 fold and the “increase in AUC(0‐t) with RTV” value [1, 4] was “approximately 10 fold”. The “increase in C max with RTV” value [1, 4] was roughly 3 fold, the “bioavailability after meal relative to the fasted state” value ([1]; SDD PiB formulation, high‐fat (60%) meal, Study HMI116787) was “approximately 1.6 fold” and the Cmax [1, 5] was 1.52 ng/mL. For the same molecule, the Tmax [1, 5] was 2.24 h, the concentration at 24 h [1, 5] was 0 ng/mL and the Cmax [1, 6] was 9.1 ng/mL. It also gave an AUC [1, 6] of 389 ng·h/mL, a half-life [1, 6] of 33.7 h and a Tmax [1, 6] of 4 h. The concentration at 24 h [1, 6] was 4.64 ng/mL, the Cmax [1, 7] was 3.49 ng/mL and the Tmax [1, 7] was 1.76 h. It also gave a concentration at 24 h [1, 7] of 0.63 ng/mL, a Cmax [1, 8] of 8.09 ng/mL and an AUC [1, 8] of 104 ng·h/mL. For the same molecule, the half-life [1, 8] was 14.1 h, the Tmax [1, 8] was 1.75 h and the concentration at 24 h [1, 8] was 1.54 ng/mL. The Cmax [1, 9] was 13.1 ng/mL, the AUC [1, 9] was 195 ng·h/mL and the half-life [1, 9] was 17.4 h. For the same molecule, the Tmax [1, 9] was 2.02 h, the concentration at 24 h [1, 9] was 3.11 ng/mL and the Cmax [1, 10] was 23.7 ng/mL. It also gave an AUC [1, 10] of 385 ng·h/mL, a half-life [1, 10] of 18.8 h and a Tmax [1, 10] of 2.75 h. The concentration at 24 h [1, 10] was 5.93 ng/mL, the CL/F [1, 6] was 25.7 (18.8, 35.1) L/h and the CL/F [1, 8] was 193 (147, 254) L/h. The CL/F [1, 9] was 256 (203, 324) L/h, the CL/F [1, 10] was 260 (202, 335) L/h and the “increase in C max by RTV” value ([1]; single dose after steady‐state predosing with RTV 100 mg QD) was 3 fold. The “relatedness of the two cardiovascular events” value ([2]; Study 200207, after expert evaluation) was “the likelihood of a relationship was very low”, the “cardiovascular finding: arrhythmia” value ([2]; Study 200207, one subject, 39 hours after last of eight daily 50 mg doses) was “a nonsustained ventricular tachycardia (NSVT) that was associated with dyspnea in another” and the “cardiovascular finding: troponin” value ([2]; Study 200207, one subject, second day of dosing with 20 mg) was “a mild troponin elevation in one subject”. The concentration at 39 hours ([2]; human, plasma, oral, one subject, 39 hours after the last of eight daily 50 mg doses, read-out: plasma concentration at the time of the NSVT event) was less than 1 ng/mL, the half-life ([2]; human, plasma, oral, without boosting, repeat dosing, read-out: t½ (converted)) was roughly 15 h and the “accumulation ratio based on AUC” value [2, 11] was 1.2. For the same molecule, the “accumulation ratio based on C max” value [2, 11] was 1.1, the “accumulation ratio based on Cτ” value [2, 11] was 1.4 and the “time to steady state” value ([2]; unboosted) was 3 days. For the same molecule, the “dose proportionality of AUC and C max” value ([2]; unboosted, 20 mg and 50 mg QD for 8 days) was “slightly less than dose‐proportional” and the “increase in AUC and C max after a 2.5‐fold dose” value ([2]; unboosted, 20 mg to 50 mg QD for 8 days) was “approximately 2 fold”.
